Source: PubChem BioAssay (NCI)
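Protocol summary: plate cells (96-well), add compound at 5 concentrations, incubate 48 h, interpolate endpoints linearly. The concentration for 50% growth inhibition is given as GI50. TGI: total growth inhibition.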

Columns and labels:
Assay in all cases: inhibition of tumour cell growth, NCI panel, 48 h
[1] = test system: COLO 205 colon
[2] = test system: HOP-62 NSCLC
[3] = test system: HOP-92 NSCLC
[4] = test system: HT29 colon
[5] = test system: KM12 colon
[6] = test system: MDA-MB-231 breast
[7] = test system: SF-295 CNS
[8] = test system: SK-MEL-28 melanoma
[9] = test system: TK-10 renal
[10] = test system: U251 CNS

SMILES | GI50 [1] | TGI [1] | GI50 [2] | TGI [2] | GI50 [3] | TGI [3] | GI50 [4] | TGI [4] | GI50 [5] | TGI [5] | GI50 [6] | TGI [6] | GI50 [7] | TGI [7] | GI50 [8] | TGI [8] | GI50 [9] | TGI [9] | GI50 [10] | TGI [10]
COc1cc(F)c(F)c(F)c1C(=O)c1cnc(NC2CCN(S(C)(=O)=O)CC2)nc1N | 0.783 µM | 4.49 µM | 2.11 µM | 16.2 µM | 0.41 µM | 7.11 µM | 1.07 µM | 15.2 µM | 0.958 µM | > 14.4 µM | 1.26 µM | 16 µM | 1.58 µM | > 9.45 µM | 2.24 µM | 18.4 µM | 1.6 µM | 24.7 µM | 0.78 µM | > 25 µM
CS(=O)c1cc(=O)c2ccccc2s1 (stereo not given) | – | 4.65 µM | – | 44.2 µM | – | 6.7 µM | – | 12.9 µM | – | 28.4 µM | – | 32.8 µM | – | 32.6 µM | – | 8.97 µM | – | 12.7 µM | – | 22.1 µM
CN(C)CCCn1c2c(c3ccc(N4CCNCC4)cc3c1=O)C(=O)c1ccccc1-2 | 0.624 µM | 2.28 µM | 1.06 µM | 2.64 µM | 1.72 µM | 6.53 µM | 0.351 µM | 1.9 µM | 1.13 µM | 3.07 µM | 0.505 µM | 2.05 µM | 1.16 µM | 3.36 µM | 1.53 µM | 3.33 µM | 1.33 µM | 4.41 µM | 0.639 µM | 2.31 µM
O=C(c1ccco1)c1c(C(F)(F)F)n([O-])c2cc(Cl)c(Cl)cc2[n+]1=O | 1.82 µM | 18.3 µM | 0.316 µM | 1 µM | 0.851 µM | 2.15 µM | 1.22 µM | 17.3 µM | 0.186 µM | 0.75 µM | 0.843 µM | 1.77 µM | 0.247 µM | 0.825 µM | 2.97 µM | 6.45 µM | 0.943 µM | 1.73 µM | 0.705 µM | 1.43 µM
COc1ncc(-c2ccc3nc(N)n(-c4ccccc4C(F)(F)F)c(=O)c3c2)cc1S(=O)(=O)Nc1ccc(F)cc1F | 0.511 µM | 1.82 µM | 0.526 µM | > 100 µM | 0.432 µM | 94.5 µM | 0.635 µM | 4.53 µM | 1.06 µM | 12.2 µM | 0.217 µM | 0.755 µM | 1.41 µM | 17.5 µM | 3.63 µM | 14.1 µM | 6.73 µM | > 100 µM | 0.953 µM | 15.3 µM
CC(=O)Nc1ccc(S(=O)(=O)N2C(=O)CCC2C(=O)Nc2ccccc2)cc1 (stereo not given) | 0.872 µM | 4.38 µM | 0.879 µM | 13.4 µM | 1.48 µM | 5.41 µM | 2.06 µM | 19.4 µM | 0.214 µM | 11.3 µM | 1.38 µM | 9.49 µM | 0.33 µM | 3.41 µM | 1.79 µM | 18.1 µM | 1.91 µM | 13.5 µM | 1.59 µM | 13.3 µM
c1c[nH]c(CN2CCN(Cc3ncc[nH]3)CC2)n1 | – | > 100 µM | – | > 100 µM | – | > 100 µM | – | > 100 µM | – | > 100 µM | – | > 100 µM | – | > 100 µM | – | > 100 µM | – | > 100 µM | – | > 100 µM
CC1SC(c2ccc(OCc3ccccc3)cc2)N(NC(=O)C(O)(c2ccccc2)c2ccccc2)C1=O (stereo not given) | 1.98 µM | 4.26 µM | 2.01 µM | 8.1 µM | 1.14 µM | 4.74 µM | 3.05 µM | 7.68 µM | 2.29 µM | 6.32 µM | 4.31 µM | 15.5 µM | 1.78 µM | 4.53 µM | 4.44 µM | 16.3 µM | 2.57 µM | 14.3 µM | 4.06 µM | 15.3 µM
CC[C@@]12CC(C(=O)OC)=C3Nc4ccccc4[C@@]34CCN(C[C@H]3O[C@H]31)[C@@H]24 | 34.4 µM | > 100 µM | 94.9 µM | > 100 µM | 17.7 µM | > 100 µM | 29.2 µM | > 100 µM | 41.3 µM | > 100 µM | 47.6 µM | > 100 µM | 36.7 µM | > 100 µM | 86.2 µM | > 100 µM | > 100 µM | > 100 µM | 43 µM | > 100 µM
CC(C)CC(=O)O[C@H]1C(=O)O[C@@H]2C[C@H]3[C@H](C)C(=O)C(O[C@@H]4O[C@H](CO)[C@@H](O)[C@H](O)[C@H]4O)=C[C@]3(C)[C@H]3[C@@H](O)[C@H](O)[C@]4(C(=O)O)OC[C@]32[C@@H]14 | > 100 µM | > 100 µM | 44.7 µM | > 100 µM | 37 µM | > 100 µM | 34 µM | > 100 µM | – | > 100 µM | > 100 µM | > 100 µM | – | – | 25.2 µM | > 100 µM | – | > 100 µM | 31.7 µM | > 100 µM
CN1CC[C@H](N(C)C(=O)N2CC(c3cc(F)ccc3F)=C[C@@]2(CO)c2ccccc2)[C@H](F)C1 | – | 3.77 µM | – | – | 0.143 µM | 79.7 µM | 0.0411 µM | > 100 µM | 0.0277 µM | > 100 µM | 0.0112 µM | 15.3 µM | 0.0148 µM | 18.2 µM | – | 28.3 µM | 27.7 µM | > 100 µM | – | > 100 µM
CCN(CC)CCCC(C)Nc1ccnc2cc(OC)ccc12 (stereo not given) | 16.1 µM | 36.8 µM | 21.2 µM | 50.9 µM | 9.25 µM | 26.7 µM | – | – | 26.4 µM | > 100 µM | 22.5 µM | 54.3 µM | 34.3 µM | > 100 µM | – | – | 17.7 µM | 40.6 µM | 42 µM | > 100 µM
CNC(=S)N/N=C/CSC/C=N/NC(=S)NC | > 100 µM | > 100 µM | > 100 µM | > 100 µM | > 100 µM | > 100 µM | – | – | > 100 µM | > 100 µM | > 100 µM | > 100 µM | > 100 µM | > 100 µM | > 100 µM | > 100 µM | > 100 µM | > 100 µM | > 100 µM | > 100 µM
